Test results published in patent US20250145633A1, “SUBSTITUTED FURANOPYRIMIDINE COMPOUNDS AS PDE1 INHIBITORS” (Dart NeuroScience, LLC, priority 2017, published 2025).

Biological target: human PDE1B enzyme (Homo sapiens (Human), UniProt Q01064)
Assay: IMAP TR-FRET PDE1B enzymatic assay
Assay type: biochemical
Settings: negative log of half-maximal molar inhibitory concentration, 200 nM FAM-cAMP, values given as bins; for IC50: read-out: PDE1b (pIC50) (converted)
Summary of the method: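 Full-length GST-tagged human PDE1B (250 pg/well) in IMAP BSA buffer with 10 U/ml calmodulin and 2.5 mM CaCl2; compound pre-incubated 5 min at room temperature, then 200 nM (final) FAM-cAMP for 30 min. IMAP binding reagent/Tb added, 1 h; TR-FRET 520/490 ratio read. IC50 from sigmoidal dose-response fit.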

| SMILES | IC50 | PDE1b (pIC50) |
| --- | --- | --- |
| Cc1oc2ncnc(NC3(C)CC3)c2c1C(=O)N1CCC(c2ncc(OCF)cn2)CC1 [Example 770, 5-{4-[5-(Fluoromethoxy)pyrimidin-2-yl]piperidine-1-carbonyl}-6-methyl-N-(1-methylcyclopropyl)furo[2,3-d]pyrimidin-4-amine] | 10 to 100 nM | – |
| Cc1oc2ncnc(NC3(C)CC3)c2c1C(=O)N1CCC(c2ccc(OCF)cc2)C1 (stereo not shown) [Example 771, 5-{3-[4-(Fluoromethoxy)phenyl]pyrrolidine-1-carbonyl}-6-methyl-N-(1-methylcyclopropyl)furo[2,3-d]pyrimidin-4-amine] | 10 to 100 nM | – |
| Cc1oc2ncnc(NC3(C)CC3)c2c1C(=O)N1CCc2ccc(OCF)cc2C1C (stereo not shown) [Example 772, 5-[7-(Fluoromethoxy)-1-methyl-1,2,3,4-tetrahydroisoquinoline-2-carbonyl]-6-methyl-N-(1-methylcyclopropyl)furo[2,3-d]pyrimidin-4-amine] | – | >8 |
| COCc1nc2c(c(OCF)n1)CCN(C(=O)c1c(C)oc3ncnc(NC4(C)CC4)c13)C2 [Example 773, 5-[4-(Fluoromethoxy)-2-(methoxymethyl)-5H,6H,7H,8H-pyrido[3,4-d]pyrimidine-7-carbonyl]-6-methyl-N-(1-methylcyclopropyl)furo[2,3-d]pyrimidin-4-amine] | 10 to 100 nM | – |
| Cc1oc2ncnc(NC3(C)CC3)c2c1C(=O)N1CC=C(c2ncc(F)cn2)C1 [Example 774, 5-[3-(5-Fluoropyrimidin-2-yl)-2,5-dihydro-1H-pyrrole-1-carbonyl]-6-methyl-N-(1-methylcyclopropyl)furo[2,3-d]pyrimidin-4-amine] | 10 to 100 nM | – |
| Cc1oc2ncnc(NC3(C)CC3)c2c1C(=O)N1CC=C(c2nccc(C#N)n2)CC1 [Example 775, 2-(1-{6-Methyl-4-[(1-methylcyclopropyl)amino]furo[2,3-d]pyrimidine-5-carbonyl}-1,2,3,6-tetrahydropyridin-4-yl)pyrimidine-4-carbonitrile] | – | >8 |
| Cc1oc2ncnc(NC3(C)CC3)c2c1C(=O)N1CCC(c2ccn(C)n2)CC1 [Example 776, 6-Methyl-5-[4-(1-methyl-1H-pyrazol-3-yl)piperidine-1-carbonyl]-N-(1-methylcyclopropyl)furo[2,3-d]pyrimidin-4-amine] | – | >8 |
| Cc1oc2ncnc(NC3(C)CC3)c2c1C(=O)N1CCC(c2ncn(C)n2)CC1 [Example 777, 6-Methyl-5-[4-(1-methyl-1H-1,2,4-triazol-3-yl)piperidine-1-carbonyl]-N-(1-methylcyclopropyl)furo[2,3-d]pyrimidin-4-amine] | 10 to 100 nM | – |
| Cc1oc2ncnc(NC3(C)CC3)c2c1C(=O)N1CCC(c2cn(C)nn2)CC1 [Example 778, 6-Methyl-5-[4-(1-methyl-1H-1,2,3-triazol-4-yl)piperidine-1-carbonyl]-N-(1-methylcyclopropyl)furo[2,3-d]pyrimidin-4-amine] | 10 to 100 nM | – |
| Cc1oc2ncnc(NC3(C)CC3)c2c1C(=O)N1CCC(c2cc(C)n(C)n2)CC1 [Example 779, 5-[4-(1,5-Dimethyl-1H-pyrazol-3-yl)piperidine-1-carbonyl]-6-methyl-N-(1-methylcyclopropyl)furo[2,3-d]pyrimidin-4-amine] | – | >8 |
| Cc1nc(C)c(C2CCN(C(=O)c3c(C)oc4ncnc(NC5(C)CC5)c34)CC2)[nH]1 [Example 780, 5-[4-(2,4-Dimethyl-1H-imidazol-5-yl)piperidine-1-carbonyl]-6-methyl-N-(1-methylcyclopropyl)furo[2,3-d]pyrimidin-4-amine] | 100 to 1000 nM | – |
| Cc1oc2ncnc(NC3(C)CC3)c2c1C(=O)N1CCC(c2ccn(C(C)C)n2)CC1 [Example 781, 6-Methyl-N-(1-methylcyclopropyl)-5-{4-[1-(propan-2-yl)-1H-pyrazol-3-yl]piperidine-1-carbonyl}furo[2,3-d]pyrimidin-4-amine] | 10 to 100 nM | – |
| Cc1oc2ncnc(NC3(C)CC3)c2c1C(=O)N1CCC(c2cnn(C)c2)CC1 [Example 782, 6-Methyl-5-[4-(1-methyl-1H-pyrazol-4-yl)piperidine-1-carbonyl]-N-(1-methylcyclopropyl)furo[2,3-d]pyrimidin-4-amine] | 10 to 100 nM | – |
